PubChem BioAssay (NCI)
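Where inhibition never reached the appropriate level, the endpoint shown equals the highest concentration tested. Otherwise, values were interpolated linearly from a five-concentration, 48-hour dose response in 96-well plates. At the TGI there is no net growth.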

What was measured:
Experiment in all cases: DTP human tumour cell line panel, 48 h
[1] = system: KM20L2 colon
[2] = system: SK-MEL-5 melanoma
[3] = system: MOLT-4 leukemia
[4] = system: HOP-18 NSCLC
[5] = system: SF-295 CNS
[6] = system: HOP-62 NSCLC
[7] = system: A549 NSCLC
[8] = system: SK-MEL-2 melanoma
[9] = system: SNB-19 CNS
[10] = system: DLD-1 colon
[11] = system: HCC-2998 colon
[12] = system: CAKI-1 renal
[13] = system: OVCAR-3 ovarian
[14] = system: NCI-H226 lung
[15] = system: SR leukemia
[16] = system: UACC-257 melanoma
[17] = system: OVCAR-8 ovarian
[18] = system: UO-31 renal
[19] = system: ACHN renal
[20] = system: OVCAR-5 ovarian
[21] = system: SNB-75 CNS
[22] = system: SF-539 CNS
[23] = system: SK-OV-3 ovarian
[24] = system: XF 498 CNS
[25] = system: KM12 colon
[26] = system: RXF 393 renal
[27] = system: COLO 205 colon
[28] = system: SW-620 colon
[29] = system: SF-268 CNS
[30] = system: M19-MEL melanoma
[31] = system: SK-MEL-28 melanoma
[32] = system: CCRF-CEM leukemia
[33] = system: HOP-92 NSCLC
[34] = system: LXFL 529 NSCLC
[35] = system: UACC-62 melanoma
[36] = system: SN12C renal
[37] = system: OVCAR-4 ovarian
[38] = system: A498 renal
[39] = system: HT29 colon
[40] = system: LOX IMVI melanoma
[41] = system: DMS 114 small cell lung
[42] = system: M14 melanoma
[43] = system: TK-10 renal
[44] = system: EKVX NSCLC
[45] = system: HCT-116 colon
[46] = system: SNB-78 CNS
[47] = system: 786-0 renal
[48] = system: RXF-631 renal
[49] = system: IGROV1 ovarian
[50] = system: MALME-3M melanoma
[51] = system: NCI-H522 lung
[52] = system: RPMI-8226 leukemia
[53] = system: NCI-H460 lung
[54] = system: K-562 leukemia
[55] = system: NCI-H23 lung
[56] = system: HCT-15 colon
[57] = system: DMS 273 small cell lung
[58] = system: U251 CNS
[59] = system: HL-60(TB) leukemia

Measured: TGI

CCCCCCCCCCCC(=O)OCC1OC(n2cc(F)c(=O)[nH]c2=O)C(NC(=O)OCc2ccccc2)C(OC(=O)CCCCCCCCCCC)C1O (stereo not given)
> 100 µM: [1] | [2] | [3] | [4] | [5] | [6] | [7] | [8] | [9] | [10] | [11] | [12] | [13] | [14] | [15] | [16] | [17] | [18] | [19] | [20] | [21] | [22] | [23] | [24] | [25] | [26] | [27] | [28] | [29] | [30] | [31] | [32] | [33] | [34] | [35] | [36] | [37] | [38] | [39] | [40] | [41] | [42] | [43] | [44] | [45] | [46] | [47] | [48] | [49] | [50] | [51] | [52] | [53] | [54] | [55] | [56] | [57] | [58]

Cc1cc(N(CCC#N)CCC#N)ccc1N=Nc1cccc(C(=O)O)c1
> 100 µM: [2] | [3] | [4] | [5] | [6] | [7] | [8] | [10] | [11] | [12] | [13] | [14] | [16] | [17] | [18] | [19] | [20] | [21] | [22] | [23] | [24] | [25] | [26] | [27] | [28] | [29] | [30] | [31] | [32] | [34] | [35] | [36] | [37] | [38] | [39] | [40] | [41] | [42] | [43] | [44] | [46] | [47] | [48] | [49] | [50] | [51] | [59] | [54] | [55] | [56] | [57] | [58]
